Data reported in patent US8163791B2, “Imidazole derivatives that induce apoptosis and their therapeutic uses” (Industry-Academic Cooperation Foundation, Yonsei University, priority 2007, dated 2012).

Experiments:
Jurkat human lymphocytes [1] = experiment: Suppression of PHA-induced homotypic aggregation in lymphocytes; type: cell-based; details: FIG. 3 legend; PHA 10 μg/mL
Procedure: (§1) FIG. 3. Suppression of TNF-α and PHA-induced human lymphocyte activation by Apoptozole 1. (A) Jurkat human lymphocytes are treated with various concentrations of Apoptozole 1 for 1 h and then are activated by incubation with 10 ng/mL of TNF-α for 1 h to induce uropod formation. The formed uropod is determined by microscopic analysis of groups of cells. (B) Lymphocytes treated with TNF-α (10 ng/mL) for 48 h are incubated with various concentrations of Apoptozole 1 for 24 h. Cell number is measured by CyQuant kit. (C) Jurkat human lymphocytes are incubated with various concentrations of Apoptozole 1 for 1 h and then with 10 μg/mL PHA for 1 h to induce cell aggregation. Cell aggregates are counted in 40× fields of view determined randomly.
(§2) Lymphocyte activation leads to the formation of a uropod in the rear pole during cell polarization and cell proliferation. Jurkat lymphocytes are incubated with various concentrations of Apoptozoles for 1 h and the treated cells are then activated by treatment with TNF-α for 1 h. Apoptozoles reduce the uropod formation induced by TNF-α by 45% in comparison with cells treated only with TNF-α. […]
For homotypic aggregation studies, lymphocytes are seeded in 6-well plates at a density of 2×10^4 cells/mL and treated with various concentrations (0-100 nM) of Az for 1 h. […] Cell aggregates are counted in 40× fields of view determined randomly.

[2] = tested on: ΔF508-CFTR in CFPAC-1 cells; experiment: Detection of ΔF508-CFTR expression on the cell membrane (immunostaining without permeabilization); type: cell-based, human; details: 100 nM, 24 h
Procedure: FIG. 4. Intracellular trafficking of misfolded ΔF508-CFTR by Apoptozole 1. (A) Capan-1 cells expressing normal CFTR display intense fluorescence in a characteristic ring structure that is indicative of cell membrane labeling. (B) CFPAC-1 cells expressing ΔF508-CFTR show little or no fluorescent signal at the cell surface, due to degradation ΔF508-CFTR by interacting with Hsc70 in the proteosome pathway. […] Immunostaining for CFTR is carried out using standard methods without cell permeabilization to allow CFTR detection on the cell surface.
The other embodiment of the present invention provides translocation methods of mutant CFTR (cystic fibrosis transmembrane conductance regulator) to treat cystic fibrosis. Hsc70 assists the degradation of misfolded proteins in the ER (Nature 1996, 381, 571-579 Cell 1998, 92, 351-366 Science 1999, 286, 1888-1893). Cystic fibrosis is a disease caused by removal of mutant CFTR in the ER. The most common mutation of CFTR is the deletion of phenylalanine-508 in CFRT (ΔF508-CFRT). […] When Capan-1 cells are immunostained with anti-CFTR antibody, intense fluorescence is observed in the cell membrane. […]
Capan-1 and CFPAC-1 cells are grown on Permanox slides (Fisher Scientific) for 24 h and treated with 1 mM 4-PBA and 100 nM Az for 24 h. […] The slides were analyzed using a fluorescence microscope (Nikon Eclipse TE2000).

Jurkat human lymphocytes [3] = experiment: Suppression of TNF-α-induced uropod formation in lymphocytes; type: cell-based; details: FIG. 3 legend; TNF-α 10 ng/mL
Procedure: as §1, §2
Jurkat human lymphocytes are seeded in 6-well plates at a density of 10^3 cells/mL in 5% FBS in order to reduce the propensity for spontaneous uropod formation. […] The formed uropod is determined by microscopic analysis of groups of cells.

Compound: COc1ccc(-c2nc(-c3cc(C(F)(F)F)cc(C(F)(F)F)c3)n(Cc3ccc(C(N)=O)cc3)c2-c2ccc(OC)cc2)cc1 [Apoptozole 1, 4-2-[3,5-bis(trifluoromethyl)phenyl]-4,5-bis(4-methoxphenyl)imidazol-1-yl-methyl-benzamide]
- PHA-induced human lymphocyte activation (Jurkat human lymphocytes [1]): Suppression
- expression of ΔF508-CFTR on the cell membrane [2]: inhibits Hsc70-mediated degradation of the ΔF508-CFTR
- TNF-α-induced human lymphocyte activation (Jurkat human lymphocytes [3]): Suppression
